What was measured:
Assay type in all cases: cell-based
[1] = tested on: human myocytes; test: Calcium measurements in human myocytes
Method: (§1) Viable myocytes were concentrated by gravity (5-7 min) and supernatant was aspirated to remove dead cells. Myocytes were resuspended in NT solution containing 1 mM Ca^2+ and concentrated by gravity (5-7 min) again. Cardiomyocytes used acutely were maintained in NT solution for up to 6 hours. Myocytes were treated with 10 μM parthenolide (Fisher Scientific NC9013142 or Sigma P0667) or 10 μM colchicine (Sigma) at room temperature in NT solution for 2 hours. Experiments were performed within 6 hours of isolation, except for those involving viral transduction in cultured cells.
Calcium measurements were carried out as described in Example 1 with the following modifications. Myocytes were loaded with 1 μM Fluo-3-acetoxymethyl ester (Invitrogen) and 15% Pluronic F127 (a poloxamer made by BASF, Florham Park, N.J., USA) for 15 minutes. Cells were scanned using a 488-nm argon ion laser in confocal line-scan mode at 0.909 ms/line. Cells were electrically paced at 0.5 Hz at room temperature for 30 s to achieve steady state; five steady-state transients of each myocyte were averaged, pooled in groups and analyzed for calcium transient properties. The measured fluorescence (F) throughout the transient was normalized to the resting fluorescence prior to stimulation (F0) to normalize for heterogeneity in dye loading.

[2] = tested on: detyrosinated tubulin; test: Western blotting of cardiomyocyte lysates (TTL, α-, detyr-, tyr-tubulin); details: rat cardiomyocytes; PTL treatment; shTTL; short term EpoY
Method: (§2) Viral constructs were permitted to express for 24-72 hours with Moi=100-200. Parthenolide (Fisher Scientific NC9013142) treatment was carried out at room temperature for 2 hours at 10 μM. All experiments were performed within 48 hours of isolation, except those involving shTTL, which were allowed 72 hours to improve knockdown efficiency.
For analysis of proteins expression levels quantitative Western blots were performed using infrared fluorescence imaging on an Odyssey Imager (LI-COR). Cell homogenates were prepared in ice-cold IGEPAL lysis buffer. After 1 freezing cycle lysates were spun at 18,000×g for 5 min. Aliquots of supernatants were mixed with 4× sample buffer (LI-COR, 928-40004) containing 10% BME, boiled for 6 min., and resolved on sodium dodecyl sulfate (SDS)-polyacrylamide gel electrophoresis Tris-glycine gels (Bio-Rad). Proteins were transferred to a membrane on Mini Trans-Blot Cell (Bio-Rad), blocked 1 h in Odyssey Blocking Buffer (TBS) (LI-COR, 927-50000), and probed with the corresponding primary antibody (see list below) for 2 h at room temperature. Membranes were then rinsed with TBST 4 times for 5 min, and incubated with secondary antibodies (below) for 1.5 h at room temperature. Membranes were rinsed again with TBST and then imaged on Odyssey Imager. Image analysis was performed using Image Studio Lite software (LI-COR). Fluorescent band intensity was always normalized to GAPDH loading control. Analysis of human tissue samples for levels of detyrosinated tubulin was performed blinded to the experimental groups.

[3] = tested on: rat adult cardiomyocytes; test: Immunofluorescence quantification of α- and dTyr-tubulin fraction of cell area
Method: as §2
Cells were fixed in 4% PFA for 15 minutes and permeabilized in 0.5% TritonX-100 for 4 minutes at room temperature. Alternately cells were fixed in methanol at −20° C. for 7 minutes. After washing, cells were placed in blocking buffer (5% BSA and 0.1% TritonX-100 in PBS) for 1 hour, then labeled with primary antibodies (below) for 24-48 hours at 4° C. Cells were then washed 4× in blocking buffer, labeled with secondary antibodies (below) at room temperature and washed 3× in blocking buffer. Stained cells were mounted on mouse laminin coated #1.5 coverslips in Prolong Gold Antifade Mountant (Life Technologies P36934) for imaging.
Confocal imaging was carried out on a Zeiss 780 laser scanning confocal scan head operating on an Axiovert Z1 inverted microscope equipped with a 40× oil 1.4 NA objective. High-speed super resolution imaging was carried out on a Zeiss 880 Airyscan confocal with a 63×1.4 oil NA objective (FIG. 8A-FIG. 8E, Airyscan application note can be found at http://www.zeiss.com/microscopy/enus/products/confocal-microscopes/Ism-880-with-airyscan-.html#downloads). Image analysis was performed using ZEN Black software for Airyscan processing, which involves signal integration from the 32 separate sub-resolution detectors in the Airyscan detector and subsequent deconvolution of this integrated signal (FIG. 8A-FIG. 8E). Additional signal processing was performed in Image J (NIH). For calculating the microtubule fraction of cell area (FIG. 2B-FIG. 2C), image analysis was performed blinded to the experimental treatment groups. A 1.5 μm max intensity projection was produced from 3 0.5 μm confocal z-sections. […] From the resulting binary images (FIG. 9B), the microtubule positive fraction of the total cell area was calculated for alpha and detyrosinated tubulin (FIG. 2C).

[4] = tested on: human myocytes; test: Cell contractility of human myocytes (0.5 Hz)
Method: as §1
MatTek glass bottom dish was coated 5 μl of 0.5 mg/ml laminin and air dried for 10 min. Culture medium was F-10 (1×) Nutrient Mixture (Ham) [+] L-Glutamine (Life Technologies, 11550-043) supplemented with insulin-transferrin selenium-X (Gibco, 51500-056), 20 mM HEPES, 1 μg/μl primocin (Invivogen, ant-pm-1), 0.4 mM extra CaCl2, 5% FBS, 25 μM cytochalasin D (Cayman, 11330). Viable myocytes were concentrated and a proper amount of medium was added in culture so that neighboring cells were not in direct contact. Viral constructs were permitted to express for 48 hours with Moi=100-200. Adenoviral TTL-IRES-dsRed and EMTB-3x GFP were transduced in human myocytes as previously performed in rat myocytes. Myocytes were replenished with fresh warm medium without cytochalasin D before calcium and contractility measurements.
Experiments were performed as described in Example 1 with some modification. Contractility is measured in custom-fabricated cell chambers (Ionoptix) mounted on an LSM Zeiss 880 inverted confocal microscope using a 40× oil 1.4 NA objective and transmitted light camera (IonOptix MyoCam-S). Myoyctes were maintained in NT solution (for freshly isolated myocytes) or culture medium (without cytochalasin D, for cultured myocytes) at room temperature and electrical field stimulation was provided at 0.5 Hz with a myopacer (IonOptix MYP100) through platinum electrodes lowered into the bath. Sarcomere length was measured optically by Fourier transform analysis (IonWizard, IonOptix). After 10-30 s of 0.5 Hz pacing to achieve steady state, five traces were recorded and analyzed. If not specified, contractility data was obtained at room temperature.
To test whether the contractile improvement over MT destabilization remains under more physiological conditions, both 0.5 Hz and 1 Hz contractions at 37 C were recorded and analyzed in a small subset of isolated human myocytes (1 NF and 1 failing heart, FIG. 29C).

[5] = NF human myocytes, suggested off-target effect
[6] = rat cardiomyocytes, thresholded immunofluorescence, TTL vs null, PTL vs ctrl

C=C1C(=O)O[C@H]2[C@H]1CC/C(C)=C/CC[C@@]1(C)O[C@@H]21 [PTL, 4,5-epoxygermacra-1(10),11(13)-dien-12,6-olactone]
[Ca2+]i amplitude [1, 5]: reduced
[Ca2+]i transient decay phase [1, 5]: prolonged
impaired [Ca2+]i cycling ([1]; failing human myocytes): neither colch nor PTL treatment improved
F0 (baseline fluo3 intensity) compared to initial levels ([1]; human myocytes): elevated
alpha / total tubulin levels (western blot) [2]: no significant change
detyrosinated tubulin (western blot) [2]: significant drop
effect on MT network density ([3]; PTL treatment): no effect
reduction in the amount/fraction of polymerized, detyrosinated MTs ([3]; isolated rat cardiomyocytes, immunofluorescence and immunoblot): 2 fold
Detyr (% cell area) [3, 6]: 30.8 % cell area
α-tub (% cell area) [3, 6]: 67.8 % cell area
late phase of relaxation ([4]; NF human myocytes, 10 μM PTL): slightly prolonging
restoration of lost function (contractile velocities vs NF benchmark) ([4]; failing human myocytes): ~50%
shortening amplitude and velocity, speed of relaxation ([4]; failing human myocytes, 10 μM, 2 hours): robustly improved

From patent US20180326022A1, “COMPOSITIONS AND METHODS FOR IMPROVING HEART FUNCTION AND TREATING HEART FAILURE” (The Trustees of the University of Pennsylvania, priority 2017, published 2018)
